melting point | Structure (SMILES)
145 to 146 °C | Cc1nc(N2CCc3cc(Cl)cc(Cl)c32)c2c(C)nn(Cc3ccccc3)c2n1 [Example 414]
136 to 138 °C | COCC[C@@H](COC)n1nnc2c(N3CCc4cc(Br)cc(Br)c43)nc(C)cc21 [Example 1, (S)-4-(5,7-Dibromo-2,3-dihydro-1H-indol-1-yl)-1-[1-(methoxymethyl)-3-methoxypropyl]-6-methyl-1H-1,2,3-triazolo[4,5-c]pyridine]
